From article PMC6753678, “Fueling Open Innovation for Malaria Transmission-Blocking Drugs: Hundreds of Molecules Targeting Early Parasite Mosquito Stages” (Frontiers in Microbiology, 2019)
Where two headings read alike, the source gives them in different places.

Columns and labels:
[1] = tested on: 3D7-strain P. falciparum asexual parasites; assay: P. falciparum asexual growth inhibition assay (Pf GIA); format: cell-based, Plasmodium falciparum; details: dose response confirmation; read-out: Pf asexual growth inhibition assays IC50
Outline: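 Read-out was lactate dehydrogenase activity measured by absorbance at 650 nm after freezing and thawing, against 50 μM chloroquine and DMSO controls. Before that, asexual 3D7 cultures (0.25% parasitemia, 2% hematocrit) had 72 h dose-response compound exposure at 37°C in 5% CO2/5% O2/90% N2; three independent replicates averaged.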

[2] = tested on: P. berghei ookinete development; details: for % inhibition, Replicate A / % inhibition, Replicate B: primary screen at 1 μM
HepG2 cells = assay: HepG2 cytotoxicity assay; details: for Pb ODA (this manuscript) HepG2 cytoxicity: HepG2 cytotoxicity listed with the Pb ODA data set (this manuscript); for IC50: read-out: HepG2 cytotoxicity assay IC50, dose response confirmation
Outline: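 Cells are plated at 2,500 per well on compound-treated plates in MEM containing 10% fetal bovine serum and 1% NEAA, then incubated 48 h at 37°C.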

[3] = read-out: Pb ODA (this manuscript) IC50, P. berghei ookinete development assay, this manuscript
[4] = read-out: Pb Ookinete development assay IC50, dose response confirmation
[5] = read-out: Pb ODA IC50, this manuscript
[6] = unified HepG2 value across the three screens

## CCc1c(C)nc(-n2nc(C)cc2NC(=O)C(CC)c2ccccc2)[nH]c1=O (centres unmarked) [TCMDC-124935]
[1]
  IC50: 558 nM
[2]
  Is compound selective in assay? Pb ODA active?: 0 (key: 1: YES; 0: NO)
  % inhibition, Replicate A: 47.36%
  % inhibition, Replicate B: 55.92%
[2]; [3]
  IC50: 8710 nM
[2]; [4]
  IC50: 8710 nM
HepG2 cells
  Pb ODA (this manuscript) HepG2 cytoxicity: 0.95 µM
  IC50: 950 nM

## CCc1c(C)nc(-n2nc(C)cc2NC(=O)c2ccc(OC)cc2OC)[nH]c1=O [TCMDC-124937]
[1]
  IC50: 10 nM
[2]
  Is compound selective in assay? Pb ODA active?: 0 (key: 1: YES; 0: NO)
  % inhibition, Replicate A: 65.69%
  % inhibition, Replicate B: 36.83%
[2]; [3]
  IC50: 1510 nM
[2]; [4]
  IC50: 1510 nM
HepG2 cells
  Pb ODA (this manuscript) HepG2 cytoxicity: 10.00 µM
  IC50: 10000 nM

## Cc1cc(=O)[nH]c(-n2nc(C)cc2NC(=O)C2(c3ccc(Cl)cc3)CCCC2)n1 [TCMDC-124943]
[1]
  IC50: 967 nM
[2]
  Is compound selective in assay? Pb ODA active?: 0 (key: 1: YES; 0: NO)
  % inhibition, Replicate A: 55.02%
  % inhibition, Replicate B: 44.00%
[2]; [3]
  IC50: 1380 nM
[2]; [4]
  IC50: 1380 nM
HepG2 cells
  Pb ODA (this manuscript) HepG2 cytoxicity: 3.31 µM
  IC50: 3310 nM

## Cc1ccccc1-c1cc(=O)c2cc(NC(=O)c3cccs3)ccc2o1 [TCMDC-124947]
[1]
  IC50: 408 nM
[2]; 1: YES, 0: NO
  Is compound selective in assay? Pb ODA active?: 1 (1: YES)
[2]
  % inhibition, Replicate A: 33.03%
  % inhibition, Replicate B: 54.68%
[2]; [5]
  IC50: 4150 nM
[2]; [4]
  IC50: 4150 nM
HepG2 cells
  IC50: 100000 nM
HepG2 cells; [6]
  Unified cytotox: 100.00 µM

## CCN(CC)c1nc(N)c2c(N)nc3c(c2c1C#N)C(=O)CN3Cc1ccccc1 [TCMDC-125024]
[1]
  IC50: 38 nM
[2]; 1: YES, 0: NO
  Is compound selective in assay? Pb ODA active?: 1 (1: YES)
[2]
  % inhibition, Replicate A: 101.60%
  % inhibition, Replicate B: 105.52%
[2]; [5]
  IC50: 620 nM
[2]; [4]
  IC50: 618 nM
HepG2 cells
  IC50: 100000 nM
HepG2 cells; [6]
  Unified cytotox: 100.00 µM

## Cc1cc(C2NC(=O)c3ccccc3N2)c(C)n1-c1ccc2c(c1)OCO2 (centres unmarked) [TCMDC-125051]
[1]
  IC50: 51 nM
[2]; 1: YES, 0: NO
  Is compound selective in assay? Pb ODA active?: 0 (0: NO)
[2]
  % inhibition, Replicate A: 87.88%
  % inhibition, Replicate B: 98.84%
[2]; [5]
  IC50: 850 nM
[2]; [4]
  IC50: 854 nM
HepG2 cells
  IC50: 3470 nM
HepG2 cells; [6]
  Unified cytotox: 3.47 µM

## Cc1nc(NC2=NCN(CCCN3CCOCC3)CN2)nc2c(C)cccc12 [TCMDC-125086]
[1]
  IC50: 1820 nM
[2]
  % inhibition, Replicate A: 51.18%
  % inhibition, Replicate B: 62.28%
[2]; [3]
  IC50: 11100 nM
[2]; [4]
  IC50: 11100 nM
HepG2 cells
  Pb ODA (this manuscript) HepG2 cytoxicity: 100.00 µM
  IC50: 100000 nM

## CCOC(=O)C1=C(C)NC2=C(C(=O)C(C(=O)OC)C(C)C2)C1c1cc(Br)c(OCC)c(OC)c1 (centres unmarked) [TCMDC-125139]
[1]
  IC50: 1420 nM
[2]; 1: YES, 0: NO
  Is compound selective in assay? Pb ODA active?: 1 (1: YES)
[2]
  % inhibition, Replicate A: 3.38%
  % inhibition, Replicate B: 50.55%
[2]; [5]
  IC50: 9060 nM
[2]; [4]
  IC50: 9060 nM
HepG2 cells
  IC50: 100000 nM
HepG2 cells; [6]
  Unified cytotox: 100.00 µM

## COc1cc(Nc2ccc3cc(S(=O)(=O)N4CCCCC4C)ccc3n2)cc(OC)c1OC (centres unmarked) [TCMDC-125163]
[1]
  IC50: 4260 nM
[2]; 1: YES, 0: NO
  Is compound selective in assay? Pb ODA active?: 1 (1: YES)
[2]
  % inhibition, Replicate A: 58.55%
  % inhibition, Replicate B: 48.73%
[2]; [5]
  IC50: 1060 nM
[2]; [4]
  IC50: 1060 nM
HepG2 cells
  IC50: 24600 nM
HepG2 cells; [6]
  Unified cytotox: 24.55 µM

## CCOc1cccc(C(=O)Nc2nonc2-c2ccc(OC)c(OC)c2)c1 [TCMDC-125179]
[1]
  IC50: < 0.2 nM
[2]; 1: YES, 0: NO
  Is compound selective in assay? Pb ODA active?: 0 (0: NO)
[2]
  % inhibition, Replicate A: 52.92%
  % inhibition, Replicate B: 35.19%
[2]; [5]
  IC50: 7640 nM
[2]; [4]
  IC50: 7640 nM
HepG2 cells
  IC50: 6760 nM
HepG2 cells; [6]
  Unified cytotox: 6.76 µM

## Cc1ccc(S(=O)(=O)N2CCCN(C(=O)c3cc(-c4ccccc4)n[nH]3)CC2)cc1 [TCMDC-125243]
[1]
  IC50: 273 nM
[2]
  Is compound selective in assay? Pb ODA active?: 1 (key: 1: YES; 0: NO)
  % inhibition, Replicate A: 53.41%
  % inhibition, Replicate B: 33.70%
[2]; [3]
  IC50: 5420 nM
[2]; [4]
  IC50: 5420 nM
HepG2 cells
  Pb ODA (this manuscript) HepG2 cytoxicity: 100.00 µM
  IC50: 100000 nM

## Cc1[nH]c2ccccc2c1C(=O)C(C)Sc1nnc(-c2ccccc2F)o1 (centres unmarked) [TCMDC-125312]
[1]
  IC50: 1270 nM
[2]; 1: YES, 0: NO
  Is compound selective in assay? Pb ODA active?: 1 (1: YES)
[2]
  % inhibition, Replicate A: 63.08%
  % inhibition, Replicate B: 65.66%
[2]; [4]
  IC50: 2580 nM
HepG2 cells
  IC50: 57500 nM
HepG2 cells; [6]
  Unified cytotox: 57.54 µM

## CN(C)c1ccc(C=CC(=O)NC(=O)c2ccccc2O)cc1 [TCMDC-125391]
[1]
  IC50: 123 nM
[2]; 1: YES, 0: NO
  Is compound selective in assay? Pb ODA active?: 1 (1: YES)
[2]
  % inhibition, Replicate A: 87.61%
  % inhibition, Replicate B: 62.62%
[2]; [4]
  IC50: 210 nM
HepG2 cells
  IC50: 100000 nM
HepG2 cells; [6]
  Unified cytotox: 100.00 µM

## O=C(c1ccco1)N1CCN(c2ccc([N+](=O)[O-])c(NC3CC3)c2)CC1 [TCMDC-125397]
[1]
  IC50: < 0.2 nM
[2]; 1: YES, 0: NO
  Is compound selective in assay? Pb ODA active?: 0 (0: NO)
[2]
  % inhibition, Replicate A: 106.00%
  % inhibition, Replicate B: 90.44%
[2]; [5]
  IC50: 1160 nM
[2]; [4]
  IC50: 1160 nM
HepG2 cells
  IC50: 2040 nM
HepG2 cells; [6]
  Unified cytotox: 2.04 µM

## CC(Oc1ccc(NC(=O)c2cccs2)cc1)C(=O)c1ccc(Cl)cc1 (centres unmarked) [TCMDC-125438]
[1]
  IC50: 512 nM
[2]
  Is compound selective in assay? Pb ODA active?: 1 (key: 1: YES; 0: NO)
  % inhibition, Replicate A: 52.47%
  % inhibition, Replicate B: 58.23%
[2]; [3]
  IC50: 1010 nM
[2]; [4]
  IC50: 1010 nM
HepG2 cells
  Pb ODA (this manuscript) HepG2 cytoxicity: 100.00 µM
  IC50: 100000 nM

## Cc1ccc(Cn2c(N3CCC(C(=O)NCc4ccccn4)CC3)nc3ccccc32)cc1 [TCMDC-125442]
[1]
  IC50: 469 nM
[2]; 1: YES, 0: NO
  Is compound selective in assay? Pb ODA active?: 1 (1: YES)
[2]
  % inhibition, Replicate A: 48.51%
  % inhibition, Replicate B: 58.27%
[2]; [5]
  IC50: 1180 nM
[2]; [4]
  IC50: 1180 nM
HepG2 cells
  IC50: 69200 nM
HepG2 cells; [6]
  Unified cytotox: 69.18 µM

## COc1ccc(Cl)cc1NC(=O)CN(C)C(=O)c1cnn(-c2ccccc2)n1 [TCMDC-125457]
[1]
  IC50: 222 nM
[2]; 1: YES, 0: NO
  Is compound selective in assay? Pb ODA active?: 1 (1: YES)
[2]
  % inhibition, Replicate A: 53.54%
  % inhibition, Replicate B: 37.16%
[2]; [5]
  IC50: 5110 nM
[2]; [4]
  IC50: 5110 nM
HepG2 cells
  IC50: 100000 nM
HepG2 cells; [6]
  Unified cytotox: 100.00 µM

## O=C1C(c2ccccc2)=C(Nc2cccc(OC(F)(F)C(F)F)c2)c2ccccc21 [TCMDC-125498]
[1]
  IC50: 68 nM
[2]
  Is compound selective in assay? Pb ODA active?: 1 (key: 1: YES; 0: NO)
  % inhibition, Replicate A: 29.02%
  % inhibition, Replicate B: 52.36%
[2]; [3]
  IC50: 1380 nM
[2]; [4]
  IC50: 1380 nM
HepG2 cells
  Pb ODA (this manuscript) HepG2 cytoxicity: 100.00 µM
  IC50: 100000 nM

## COc1ccc(NC2=C(c3ccccc3)C(=O)c3ccccc32)cn1 [TCMDC-125501]
[1]
  IC50: 385 nM
[2]
  Is compound selective in assay? Pb ODA active?: 1 (key: 1: YES; 0: NO)
  % inhibition, Replicate A: 44.98%
  % inhibition, Replicate B: 57.32%
[2]; [3]
  IC50: 1980 nM
[2]; [4]
  IC50: 1980 nM
HepG2 cells
  Pb ODA (this manuscript) HepG2 cytoxicity: 100.00 µM
  IC50: 100000 nM

## CCN(CC)CCCNc1c2ccccc2nc2ccccc12.Cl [TCMDC-125517]
[1]
  IC50: 50 nM
[2]; 1: YES, 0: NO
  Is compound selective in assay? Pb ODA active?: 1 (1: YES)
[2]
  % inhibition, Replicate A: 20.29%
  % inhibition, Replicate B: 90.60%
[2]; [5]
  IC50: 1610 nM
[2]; [4]
  IC50: 1610 nM
HepG2 cells; HepG2, this manuscript
  HepG2 cytoxicity (Pb ODA, this manuscript): 18.20 µM
HepG2 cells; HepG2 values of the three screens unified
  Unified cytotox: 18.20 µM
HepG2 cells
  IC50: 18200 nM
